From ChEMBL document CHEMBL5137134, “Developing the Natural Prenylflavone Artocarpin from Artocarpus hirsutus as a Potential Lead Targeting Pathogenic, Multidrug-Resistant Staphylococcus aureus, Persisters and Biofilms with No Detectable Resistance” (J Nat Prod, 2022)
≈ marks a conversion by molar mass, not a printed value.

How the values were obtained:
Klebsiella pneumoniae = assay: Antibacterial activity against Klebsiella pneumoniae BAA 1705 assessed as reduction in bacterial growth incubated for 16 to 18 hrs by broth microdilution method; assay type: functional; conditions: time 16-18 hrs
[1] = Cytotoxicity against African green monkey Vero cells after 72 hrs by MTT assay; assay type: toxicity, cell-based; conditions: chlorocebus sabaeus
[2] = Selectivity index, ratio of CC50 for African green monkey Vero cells to MIC for Staphylococcus aureus ATCC 29213; assay type: toxicity; conditions: read-out: Selectivity Index
Escherichia coli = assay: Antibacterial activity against Escherichia coli ATCC 25922 assessed as reduction in bacterial growth incubated for 16 to 18 hrs in presence of PMBN by broth microdilution method; assay type: functional; conditions: time 16-18 hrs
Acinetobacter baumannii = assay: Antibacterial activity against Acinetobacter baumannii BAA 1605 assessed as reduction in bacterial growth incubated for 16 to 18 hrs in presence of PMBN by broth microdilution method; assay type: functional; conditions: time 16-18 hrs
Staphylococcus aureus [3] = assay: Antibacterial activity against methicillin/tetracycline resistant Staphylococcus aureus NRS 100 assessed as reduction in bacterial growth incubated for 16 to 18 hrs by broth microdilution method; assay type: functional; conditions: time 16-18 hrs
Staphylococcus aureus [4] = assay: Antibacterial activity against methicillin/meropenem/levoflaxacin resistant Staphylococcus aureus NRS 198 assessed as reduction in bacterial growth incubated for 16 to 18 hrs by broth microdilution method; assay type: functional; conditions: time 16-18 hrs
Staphylococcus aureus [5] = assay: Antibacterial activity against methicillin/levoflaxacin/meropenem resistant Staphylococcus aureus NRS 186 assessed as reduction in bacterial growth incubated for 16 to 18 hrs by broth microdilution method; assay type: functional; conditions: time 16-18 hrs
Staphylococcus aureus [6] = assay: Antibacterial activity against methicillin/meropenem resistant Staphylococcus aureus NRS 194 assessed as reduction in bacterial growth incubated for 16 to 18 hrs by broth microdilution method; assay type: functional; conditions: time 16-18 hrs
Staphylococcus aureus [7] = assay: Antibacterial activity against methicillin/levoflaxacin/vancomycin/meropenem/gentamycin/spectinomycin/teicoplanin resistant Staphylococcus aureus VRS 4 assessed as reduction in bacterial growth incubated for 16 to 18 hrs by broth microdilution method; assay type: functional; conditions: time 16-18 hrs
Enterococcus [8] = assay: Antibacterial activity against vancomycin sensitive/methicillin resistant Enterococcus NR 31884 assessed as reduction in bacterial growth incubated for 16 to 18 hrs by broth microdilution method; assay type: functional; conditions: time 16-18 hrs
Enterococcus [9] = assay: Antibacterial activity against vancomycin sensitive/methicillin resistant Enterococcus NR 31885 assessed as reduction in bacterial growth incubated for 16 to 18 hrs by broth microdilution method; assay type: functional; conditions: time 16-18 hrs
Enterococcus [10] = assay: Antibacterial activity against vancomycin sensitive/methicillin resistant Enterococcus NR 31886 assessed as reduction in bacterial growth incubated for 16 to 18 hrs by broth microdilution method; assay type: functional; conditions: time 16-18 hrs
Enterococcus [11] = assay: Antibacterial activity against vancomycin sensitive/methicillin resistant Enterococcus NR 31887 assessed as reduction in bacterial growth incubated for 16 to 18 hrs by broth microdilution method; assay type: functional; conditions: time 16-18 hrs
Enterococcus [12] = assay: Antibacterial activity against vancomycin sensitive/methicillin resistant Enterococcus NR 31888 assessed as reduction in bacterial growth incubated for 16 to 18 hrs by broth microdilution method; assay type: functional; conditions: time 16-18 hrs
Staphylococcus aureus [13] = assay: Bactericidal activity against Staphylococcus aureus ATCC 29213 assessed as reduction in log10 CFU at 2.5 times MIC after 5 mins by time kill assay; assay type: functional
Staphylococcus aureus [14] = assay: Bactericidal activity against Staphylococcus aureus ATCC 29213 assessed as reduction in log10 CFU at 10 times MIC after 5 mins by time kill assay; assay type: functional
Staphylococcus aureus [15] = assay: Bactericidal activity against Staphylococcus aureus ATCC 29213 assessed as reduction in log10 CFU at 1 time MIC after 1 hr by time kill assay; assay type: functional
Staphylococcus aureus [16] = assay: Bactericidal activity against Staphylococcus aureus ATCC 29213 assessed as reduction in log10 CFU at 10 time MIC after 1 hr by time kill assay; assay type: functional
Staphylococcus aureus [17] = assay: Synergistic antibacterial activity against Staphylococcus aureus ATCC 29213 assessed as reduction in bacterial growth incubated for 24 hrs in presence of gentamycin by checkerboard method; assay type: functional
Staphylococcus aureus [18] = assay: Synergistic antibacterial activity against Staphylococcus aureus ATCC 29213 assessed as reduction in bacterial growth incubated for 24 hrs in presence of linezolid by checkerboard method; assay type: functional
Staphylococcus aureus [19] = assay: Synergistic antibacterial activity against Staphylococcus aureus ATCC 29213 assessed as reduction in bacterial growth incubated for 24 hrs in presence of ceftazidime by checkerboard method; assay type: functional
Staphylococcus aureus [20] = assay: Synergistic antibacterial activity against Staphylococcus aureus ATCC 29213 assessed as reduction in bacterial growth incubated for 24 hrs in presence of meropenem by checkerboard method; assay type: functional
Staphylococcus aureus [21] = assay: Synergistic antibacterial activity against Staphylococcus aureus ATCC 29213 assessed as reduction in bacterial growth incubated for 24 hrs in presence of rifampicin by checkerboard method; assay type: functional
Staphylococcus aureus [22] = assay: Synergistic antibacterial activity against Staphylococcus aureus ATCC 29213 at 1 time MIC after 24 hrs in presence of gentamicin by time kill assay; assay type: functional
Staphylococcus aureus [23] = assay: Synergistic antibacterial activity against Staphylococcus aureus ATCC 29213 at 1 time MIC after 24 hrs in presence of linezolid by time kill assay; assay type: functional
Staphylococcus aureus [24] = assay: Post antibiotic effect against Staphylococcus aureus ATCC 29213 at 1 time MIC incubated for 1 hr followed by replacement with drug free medium and measured every 1 hr (reference value: 0 hr); assay type: functional
Staphylococcus aureus [25] = assay: Post antibiotic effect against Staphylococcus aureus ATCC 29213 at 10 times MIC incubated for 1 hr followed by replacement with drug free medium and measured every 1 hr (reference value: 0 hr); assay type: functional
Staphylococcus aureus [26] = assay: Antibacterial activity against Staphylococcus aureus ATCC 29213 infected in BALB/c mouse neutropenic thigh infection model assessed as reduction in thigh bacterial load at 50 mg/kg, ip pre-infected with bacteria for 3 hrs followed by compound addition twice at a interval of 3 hrs and measured after 24 hrs; assay type: functional
Staphylococcus aureus [27] = assay: Antibacterial activity against Staphylococcus aureus ATCC 29213 infected in Swiss mouse skin infection model assessed as reduction in skin bacterial load at 1 % dose administered twice daily for 4 days; assay type: functional; conditions: time 4 day
Staphylococcus aureus [28] = assay: Synergistic antibacterial activity against Staphylococcus aureus ATCC 29213 assessed as fractional inhibitory concentration incubated for 24 hrs in presence of gentamycin by checkerboard method; assay type: functional
Staphylococcus aureus [29] = assay: Synergistic antibacterial activity against Staphylococcus aureus ATCC 29213 assessed as fractional inhibitory concentration incubated for 24 hrs in presence of linezolid by checkerboard method; assay type: functional
Staphylococcus aureus [30] = assay: Synergistic antibacterial activity against Staphylococcus aureus ATCC 29213 assessed as fractional inhibitory concentration incubated for 24 hrs in presence of daptomycin by checkerboard method; assay type: functional
Staphylococcus aureus [31] = assay: Synergistic antibacterial activity against Staphylococcus aureus ATCC 29213 assessed as fractional inhibitory concentration incubated for 24 hrs in presence of levofloxacin by checkerboard method; assay type: functional
Staphylococcus aureus [32] = assay: Synergistic antibacterial activity against Staphylococcus aureus ATCC 29213 assessed as fractional inhibitory concentration incubated for 24 hrs in presence of ceftazidime by checkerboard method; assay type: functional
Staphylococcus aureus [33] = assay: Synergistic antibacterial activity against Staphylococcus aureus ATCC 29213 assessed as fractional inhibitory concentration incubated for 24 hrs in presence of meropenem by checkerboard method; assay type: functional
Staphylococcus aureus [34] = assay: Synergistic antibacterial activity against Staphylococcus aureus ATCC 29213 assessed as fractional inhibitory concentration incubated for 24 hrs in presence of minocycline by checkerboard method; assay type: functional
Staphylococcus aureus [35] = assay: microbe, parasite or virus in culture; conditions: ATCC 29213
Description: Antibacterial activity against Staphylococcus aureus ATCC 29213 assessed as reduction in bacterial growth incubated for 16 to 18 hrs by broth microdilution method

COc1cc2oc(-c3ccc(O)cc3O)c(CC=C(C)C)c(=O)c2c(O)c1/C=C/C(C)C [ARTOCARPIN]
MIC (Klebsiella pneumoniae): > 128 µg/mL
CC50 at 72 h [1]: 80 µg/mL (≈ 183 µM)
selectivity ratio [2]: 40
MIC (Escherichia coli): 8 µg/mL
MIC (Acinetobacter baumannii): 4 µg/mL
MIC (Staphylococcus aureus [3]): 4 µg/mL (≈ 9.16 µM)
MIC (Staphylococcus aureus [4]): 2 µg/mL (≈ 4.58 µM)
MIC (Staphylococcus aureus [5]): 4 µg/mL (≈ 9.16 µM)
MIC (Staphylococcus aureus [6]): 4 µg/mL (≈ 9.16 µM)
MIC (Staphylococcus aureus [7]): 4 µg/mL (≈ 9.16 µM)
MIC (Enterococcus [8]): 2 µg/mL (≈ 4.58 µM)
MIC (Enterococcus [9]): 2 µg/mL (≈ 4.58 µM)
MIC (Enterococcus [10]): 2 µg/mL (≈ 4.58 µM)
MIC (Enterococcus [11]): 2 µg/mL (≈ 4.58 µM)
MIC (Enterococcus [12]): 2 µg/mL (≈ 4.58 µM)
Activity (Staphylococcus aureus [13]): 1.4 log10CFU/ml
Activity (Staphylococcus aureus [14]): 2.07 log10CFU/ml
Activity (Staphylococcus aureus [15]): 3.6 log10CFU/ml
Activity (Staphylococcus aureus [16]): 4.8 log10CFU/ml
MIC (Staphylococcus aureus [17]): 0.06 µg/mL
MIC (Staphylococcus aureus [18]): 1 µg/mL
MIC (Staphylococcus aureus [19]): 2 µg/mL
MIC (Staphylococcus aureus [20]): 2 µg/mL
MIC (Staphylococcus aureus [21]): 2 µg/mL
Activity (Staphylococcus aureus [22]): 100%
Activity (Staphylococcus aureus [23]): 4 log10CFU/ml
PAE (Staphylococcus aureus [24]): 3 h
PAE (Staphylococcus aureus [25]): 22 h
Activity (Staphylococcus aureus [26]): 0.6 log10CFU/g
Activity (Staphylococcus aureus [27]): 1 log10CFU/g
FIC (Staphylococcus aureus [28]): 0.015
FIC (Staphylococcus aureus [29]): 0.25
FIC (Staphylococcus aureus [30]): 0.25
FIC (Staphylococcus aureus [31]): 0.5
FIC (Staphylococcus aureus [32]): 0.5
FIC (Staphylococcus aureus [33]): 0.5
FIC (Staphylococcus aureus [34]): 0.25
MIC (Staphylococcus aureus [35]): 2 µg/mL (≈ 4.58 µM)
